Measurements taken from patent US9447100B2, “Substituted pyrazolo[1,5-A] pyrimidines as calcium receptor modulating agents” (Takeda Pharmaceutical Company Limited, priority 2002, dated 2016).

Compound	melting point
CCC(NC(=O)c1cnn2c1NC(c1ccccc1)CC2C(F)(F)F)c1ccccc1F (centres unmarked) [Example 400, N-(1-(2-fluorophenyl)propyl)-5-phenyl-7-(trifluoromethyl)-4,5,6,7-tetrahydropyrazolo[1,5-a]pyrimidine-3-carboxamide]	204 to 205 °C
CCC(NC(=O)c1cnn2c1NC(c1ccccc1)CC2C(F)(F)F)c1ccccc1Br (centres unmarked) [Example 401, N-(1-(2-bromophenyl)propyl)-5-phenyl-7-(trifluoromethyl)-4,5,6,7-tetrahydropyrazolo[1,5-a]pyrimidine-3-carboxamide]	236 to 237 °C
CC1(C)CC(c2ccccc2)Nc2c(C(=O)NC(c3ccc(Cl)cc3)c3ccc(Cl)cc3)cnn21 (centres unmarked) [Example 405, N-(bis(4-chlorophenyl)methyl)-7,7-dimethyl-5-phenyl-4,5,6,7-tetrahydropyrazolo[1,5-a]pyrimidine-3-carboxamide]	180 to 181 °C
COc1ccc(C(NC(=O)c2cnn3c2NC(c2ccccc2)CC3(C)C)c2ccc(OC)cc2)cc1 (centres unmarked) [Example 407, N-(bis(4-methoxyphenyl)methyl)-7,7-dimethyl-5-phenyl-4,5,6,7-tetrahydropyrazolo[1,5-a]pyrimidine-3-carboxamide]	184 to 185 °C
CC1(C)CC(c2ccccc2)Nc2c(C(=O)N(Cc3ccccc3)Cc3ccccc3)cnn21 (centres unmarked) [Example 408, N,N-dibenzyl-7,7-dimethyl-5-phenyl-4,5,6,7-tetrahydropyrazolo[1,5-a]pyrimidine-3-carboxamide]	206 to 207 °C
CC1(C)CC(c2ccccc2)Nc2c(C(=O)N(Cc3ccc(C(F)(F)F)cc3)Cc3ccc(C(F)(F)F)cc3)cnn21 (centres unmarked) [Example 409, 7,7-dimethyl-5-phenyl-N,N-bis(4-(trifluoromethyl)benzyl)-4,5,6,7-tetrahydropyrazolo[1,5-a]pyrimidine-3-carboxamide]	164 to 165 °C
CCCCC(CCCC)(NC(=O)c1cnn2c1NC(c1ccccc1)CC2(C)C)c1ccc(C(F)(F)F)cc1 (centres unmarked) [Example 411, N-(1-butyl-1-(4-(trifluoromethyl)phenyl)pentyl)-7,7-dimethyl-5-phenyl-4,5,6,7-tetrahydropyrazolo[1,5-a]pyrimidine-3-carboxamide]	113 to 114 °C
CC1(C)CC(c2ccccc2)Nc2c(C(=O)NC(c3ccc(C(F)(F)F)cc3)(C3CCCCC3)C3CCCCC3)cnn21 (centres unmarked) [Example 412, N-(dicyclohexyl(4-(trifluoromethyl)phenyl)methyl)-7,7-dimethyl-5-phenyl-4,5,6,7-tetrahydropyrazolo[1,5-a]pyrimidine-3-carboxamide]	146 to 147 °C
CCC(CC)(NC(=O)c1cnn2c1NC(c1ccccc1)CC2(C)C)c1ccc(Br)cc1 (centres unmarked) [Example 413, N-(1-(4-bromophenyl)-1-ethylpropyl)-7,7-dimethyl-5-phenyl-4,5,6,7-tetrahydropyrazolo[1,5-a]pyrimidine-3-carboxamide]	129 to 130 °C
CCC(NC(=O)c1cnn2c1NC(c1ccccc1)CC2(C)C)c1ccccc1Br (centres unmarked) [Example 416, N-(1-(2-bromophenyl)propyl)-7,7-dimethyl-5-phenyl-4,5,6,7-tetrahydropyrazolo[1,5-a]pyrimidine-3-carboxamide]	200 to 201 °C
CCC(CC)(NC(=O)c1cnn2c1NC(c1ccccc1)CC2(C)C)c1ccc(C(C)(C)C)cc1 (centres unmarked) [Example 417, N-(1-(4-tert-butylphenyl)-1-ethylpropyl)-7,7-dimethyl-5-phenyl-4,5,6,7-tetrahydropyrazolo[1,5-a]pyrimidine-3-carboxamide]	196 to 197 °C
CC(C)(NC(=O)c1cnn2c1NC(c1ccccc1)CC2(C)C)c1ccc(C(F)(F)F)cc1 (centres unmarked) [Example 427, 7,7-dimethyl-N-(1-methyl-1-(4-(trifluoromethyl)phenyl)ethyl)-5-phenyl-4,5,6,7-tetrahydropyrazolo[1,5-a]pyrimidine-3-carboxamide]	182 to 183 °C
CCC1(NC(=O)c2cnn3c2NC(c2ccccc2)CC3(C)C)CCCCC1 (centres unmarked) [Example 431, N-(1-ethylcyclohexyl)-7,7-dimethyl-5-phenyl-4,5,6,7-tetrahydropyrazolo[1,5-a]pyrimidine-3-carboxamide]	166 to 167 °C
CCC(CC)(NC(=O)c1cnn2c1NC(c1ccccc1)CC2(C)C)C1CCCCC1 (centres unmarked) [Example 432, N-(1-cyclohexyl-1-ethylpropyl)-7,7-dimethyl-5-phenyl-4,5,6,7-tetrahydropyrazolo[1,5-a]pyrimidine-3-carboxamide]	130 to 131 °C
CC1(C)CC(c2ccccc2)Nc2c(C(=O)NC(C3CCCCC3)C3CCCCC3)cnn21 (centres unmarked) [Example 433, N-(dicyclohexylmethyl)-7,7-dimethyl-5-phenyl-4,5,6,7-tetrahydropyrazolo[1,5-a]pyrimidine-3-carboxamide]	187 to 188 °C
CCC(CC)(NC(=O)c1cnn2c1NC(c1ccccc1)CC2(C)C)c1cccc(C(F)(F)F)c1 (centres unmarked) [Example 434, N-(1-ethyl-1-(3-(trifluoromethyl)phenyl)propyl)-7,7-dimethyl-5-phenyl-4,5,6,7-tetrahydropyrazolo[1,5-a]pyrimidine-3-carboxamide]	166 to 167 °C

Compound	melting point
CCC(CC)(NC(=O)c1cnn2c1NC(c1ccccc1)CC2(C)C)c1ccc(Cl)nc1 (centres unmarked) [Example 573, N-(1-(6-chloro-3-pyridinyl)-1-ethylpropyl)-7,7-dimethyl-5-phenyl-4,5,6,7-tetrahydropyrazolo[1,5-a]pyrimidine-3-carboxamide]	223 to 224 °C
CCC(CC)(NC(=O)c1cnn2c1NC(c1ccccc1)CC2(C)C)c1ccc(C#N)cc1 (centres unmarked) [Example 574, N-(1-(4-cyanophenyl)-1-ethylpropyl)-7,7-dimethyl-5-phenyl-4,5,6,7-tetrahydropyrazolo[1,5-a]pyrimidine-3-carboxamide]	237 to 238 °C
CCC1(NC(=O)c2cnn3c2NC(c2ccccc2)CC3(C)C)CCSCC1 (centres unmarked) [Example 575, N-(4-ethyltetrahydro-2H-thiopyran-4-yl)-7,7-dimethyl-5-phenyl-4,5,6,7-tetrahydropyrazolo[1,5-a]pyrimidine-3-carboxamide]	97 to 98 °C
COc1ccccc1C1CC(C)(C)n2ncc(C(=O)NC34CC5CC(CC(C5)C3)C4)c2N1 (centres unmarked) [Example 581, N-1-adamantyl-5-(2-methoxyphenyl)-7,7-dimethyl-4,5,6,7-tetrahydropyrazolo[1,5-a]pyrimidine-3-carboxamide]	280 to 282 °C
CCC1(NC(=O)c2cnn3c2NC(c2ccccc2)CC3(C)C)CCOCC1 (centres unmarked) [Example 582, N-(4-ethyltetrahydro-2H-pyran-4-yl)-7,7-dimethyl-5-phenyl-4,5,6,7-tetrahydropyrazolo[1,5-a]pyrimidine-3-carboxamide]	104 to 105 °C
CCC(CC)(NC(=O)c1cnn2c1NC(c1ccccc1)CC2(C)C)c1ccc(-c2ccco2)cc1 (centres unmarked) [Example 584, N-(1-ethyl-1-(4-(2-furyl)phenyl)propyl)-7,7-dimethyl-5-phenyl-4,5,6,7-tetrahydropyrazolo[1,5-a]pyrimidine-3-carboxamide]	167 to 168 °C
CCC(CC)(NC(=O)c1cnn2c1NC(c1ccccc1)CC2(C)C)c1ccc(-c2ccoc2)cc1 (centres unmarked) [Example 585, N-(1-ethyl-1-(4-(3-furyl)phenyl)propyl)-7,7-dimethyl-5-phenyl-4,5,6,7-tetrahydropyrazolo[1,5-a]pyrimidine-3-carboxamide]	185 to 186 °C
CC1(NC(=O)c2cnn3c2NC(c2ccccc2)CC3(C)C)CCCCC1 (centres unmarked) [Example 586, 7,7-dimethyl-N-(1-methylcyclohexyl)-5-phenyl-4,5,6,7-tetrahydropyrazolo[1,5-a]pyrimidine-3-carboxamide]	170 to 171 °C
C#CC1(NC(=O)c2cnn3c2NC(c2ccccc2)CC3(C)C)CCCCC1 (centres unmarked) [Example 587, N-(1-ethynylcyclohexyl)-7,7-dimethyl-5-phenyl-4,5,6,7-tetrahydropyrazolo[1,5-a]pyrimidine-3-carboxamide]	201 to 202 °C
CCC(CC)(NC(=O)c1cnn2c1NC(c1ccccc1)CC2(C)C)c1ccc(F)c(F)c1 (centres unmarked) [Example 589, N-(1-(3,4-difluorophenyl)-1-ethylpropyl)-7,7-dimethyl-5-phenyl-4,5,6,7-tetrahydropyrazolo[1,5-a]pyrimidine-3-carboxamide]	171 to 172 °C
CCC(CC)(NC(=O)c1cnn2c1NC(c1ccccc1OC)CC2(C)C)c1ccc(C(F)(F)F)cc1 (centres unmarked) [Example 590, N-(1-ethyl-1-(4-(trifluoromethyl)phenyl)propyl)-5-(2-methoxyphenyl)-7,7-dimethyl-4,5,6,7-tetrahydropyrazolo[1,5-a]pyrimidine-3-carboxamide]	211 to 213 °C
CCC(CC)(NC(=O)c1cnn2c1NC(c1ccccc1OC)CC2(C)C)c1ccc(F)cc1 (centres unmarked) [Example 600, N-(1-ethyl-1-(4-fluorophenyl)propyl)-5-(2-methoxyphenyl)-7,7-dimethyl-4,5,6,7-tetrahydropyrazolo[1,5-a]pyrimidine-3-carboxamide]	206.2 to 206.3 °C
CCC(CC)(NC(=O)c1cnn2c1NC(c1ccccn1)CC2(C)C)c1ccc(F)cc1 (centres unmarked) [Example 601, N-(1-ethyl-1-(4-fluorophenyl)propyl)-7,7-dimethyl-5-(2-pyridinyl)-4,5,6,7-tetrahydropyrazolo[1,5-a]pyrimidine-3-carboxamide]	167 to 169 °C
CCC(CC)(NC(=O)c1cnn2c1NC(c1ncc(C)s1)CC2(C)C)c1ccc(F)cc1 (centres unmarked) [Example 602, N-(1-ethyl-1-(4-fluorophenyl)propyl)-7,7-dimethyl-5-(5-methyl-1,3-thiazol-2-yl)-4,5,6,7-tetrahydropyrazolo[1,5-a]pyrimidine-3-carboxamide]	163.5 to 163.6 °C
CCC(CC)(NC(=O)c1cnn2c1NC(c1cccc(OC)n1)CC2(C)C)c1ccc(F)cc1 (centres unmarked) [Example 603, N-(1-ethyl-1-(4-fluorophenyl)propyl)-5-(6-methoxy-2-pyridinyl)-7,7-dimethyl-4,5,6,7-tetrahydropyrazolo[1,5-a]pyrimidine-3-carboxamide]	156 to 157 °C
CCC1(NC(=O)c2cnn3c2NC(c2ccccc2)CC3(C)C)CCC(C)CC1 (centres unmarked) [Example 612, N-(1-ethyl-4-methylcyclohexyl)-7,7-dimethyl-5-phenyl-4,5,6,7-tetrahydropyrazolo[1,5-a]pyrimidine-3-carboxamide]	160 to 161 °C
